# Test results: patent US10351915B2 (Berg LLC, priority 2009, dated 2019)
# What was measured:
# ATP Citrate Lyase (ACL) = experiment: Western blot, ATP Citrate Lyase levels; assay type: cell-based, human; details: for ATP Citrate Lysase as % of CTRL, Normalized Intensity: 48 h
# Protocol: After transfer each of the blots was placed in between 2 Whatman Filter papers and dried for 15-20 minutes. After drying the blots were labeled with the date, the type of samples and either blot 1 or blot 2 using a HB pencil. The molecular weight markers were outlined with the pencil and with single lines for the blue and a doublet for the colored markers. The blots were activated with methanol for 5 seconds, washed with water for 5 minutes, and TBST for 15 minutes. The blots were blocked for 1 hour with 5% blocking reagent in TBS-T at room temperature and then washed 3 times with TBS-T (1×-15′; 2×5′ each). Blot 1 was probed with the primary antibody for IDH1 (Cell Signaling #3997) in TBST with 5% BSA (at 1:1000 dilutions) and blot 2 with the rabbit polyclonal antibody for ATP Citrate Lyase in 5% BSA (Cell Signaling #4332) at 1:1000 dilution by incubation overnight at 4 deg C. with shaking. After the overnight incubation with primary antibodies, the blots were washed 3 times with TBS-T (1×-15′; 2×5′ each) and probed with the secondary antibody (antirabbit; 1:10,000 dilution) for 1 h on the orbital tilting shaker at room temperature. After 1 h of incubation with secondary antibodies, the blots were washed 3 times with TBS-T (1×-15′; 2×5′ each) and then incubated with ECF reagent for 5 mins and then each blot scanned with 5100 Fuji Laser scanner at 25 uM resolution, 16 bit, green laser, at 400V and at 500 V.
# The Isocitrate dehydrogenase blot was stripped by incubating for 30 minutes with methanol, followed by two 10 minute washes with TBS-T, then 30 minutes of incubation with stripping buffer at 50 deg C., and followed by two washes with 100 ml or more of TBS-T for 30′ each. The blot was scanned in laser scanner to check for complete stripping. The blot was activated with methanol for 5 seconds, washed with water for 5 minutes, and TBST for 15 minutes. The blot was blocked for 1 hour with 5% blocking reagent in TBS-T at room temperature and then washed 3 times with TBS-T (1×-15′; 2×5′ each). This was then probed with the rabbit polyclonal antibody for ATP Citrate Lyase in 5% BSA (Cell Signaling #4332) at 1:1000 dilution overnight at 4 deg C. with shaking. After the overnight incubation with primary antibody for ATP Citrate Lyase, the membrane was washed 3 times with TBS-T (1×-15′; 2×5′ each) and probed with the secondary antibody (antirabbit; 1:10,000 dilution) for 1 h on the orbital tilting shaker at room temperature. After 1 h of incubation with secondary antibodies, the blot was washed 3 times with TBS-T (1×-15′; 2×5′ each) and then incubated with ECF reagent for 5 minutes and then each blot scanned with 5100 Fuji Laser scanner at 25 uM resolution, 16 bit, green laser, at 400V and at 500 V.
# The levels of IDH1, ATP citrate lyase and actin levels were determined by probing the blots with primary antibodies for IDH1, ATP citrate lyase and actin, essentially as described above.
# [1] = LC-MS/MS quantification of Q10, Q10H2 and Q9 in mitochondrial enriched samples; assay type: cell-based
# Protocol: Ten μl of each sample was injected.
# SKMEL-28 cells = experiment: 2-D gel electrophoresis proteomic analysis; assay type: cell-based
# Protocol: For isolation of proteins, cells were washed three times with 5 mL of ice cold PBS at a pH of 7.4. The cells were then scraped in 3 mL of PBS, pelleted by centrifuge, and re-suspended in a lysis buffer at pH 7.4 (80 mM TRIS-HCl, 1% SDS, with protease and phosphotase inhibitors). Protein concentrations were quantified using the BCA method.
# The gels were run in duplicate.
# The first experimental set processed and evaluated by Western blot and 2-D gel electrophoresis was the skin cancer cell line SKMEL-28.
# A comparative analysis of 943 spots across all twenty-four gels was performed, comparing the control sample against all of the treated samples. The analysis included the identification of spot changes over the time course due to increase, decrease, or post-translational modification.
# The analysis found thirty-two statistically significant differential spot changes. […] The characterized peptides were searched against protein databases with Mascot and MSRAT software analysis to identify the protein (Table 2).
# [2] = tested on: PaCa-2 pancreatic cancer cells; experiment: Oxygen consumption rate (OCR), SeaHorse XF analyzer; assay type: cell-based; details: absence and presence of stressors
# Description: (§1) (SeaHorse Biosciences Inc, North Billerica, Mass.).
# (§2) In contrast, cancer cells (e.g., MCF-7, PaCa-2) are inherently primed to culture at higher levels of glucose compared to normal cells due to their glycolytic phenotype for maintenance in culture.
# [3] = tested on: MCF-7 breast cancer cells; experiment: as above; assay type: cell-based; details: absence and presence of stressors
# Description: as §1, §2
# [4] = tested on: HepG2 (liver cancer) cells; experiment: PCR Diabetes Array; assay type: cell-based; details: 100 μM Q10, 48 hours
# Protocol: The treatment was initiated on 1×10^5 cells per well, following the procedure utilized in the PaCa2 cells (above, Examples 9-11). However, the total amount of RNA that was extracted from these samples was lower than expected. Reverse transcription is normally done using 1 μg total RNA (determined by measurement at 260 nm). The maximum volume that can be used per reverse transcription is 8 μl.
# SK-MEL28 = experiment: Nexin assay for apoptosis (flow cytometry); assay type: cell-based; details: 50 μM and 100 μM Q10, 24 hours
# Description: (§3) The 7AAD dye will enter into cells with permeabilized cell membranes; primarily those cells that are in late apoptosis. Annexin-V-PE is a dye that binds to Phosphotidyl serine, which is exposed on the outer surface of the plasma membrane in early apoptotic cells. The Nexin reagent thus can be used to differentiate between different populations of apoptotic cells in a flow cytometer.
# MCF-7 = experiment: Nexin assay for apoptosis (flow cytometry); assay type: cell-based; details: 50 μM and 100 μM Q10, 24 hours
# Description: as §3
# PC-3 = experiment: Nexin assay for apoptosis (flow cytometry); assay type: cell-based; details: 50 μM and 100 μM Q10, 24 hours
# Description: as §3
# PaCa2 = experiment: Nexin assay for apoptosis (flow cytometry); assay type: cell-based; details: 50 μM and 100 μM Q10, 24 hours
# Description: as §3
smiles,measurement,setting,value
"COC1=C(OC)C(=O)C(C/C=C(\C)CC/C=C(\C)CC/C=C(\C)CC/C=C(\C)CC/C=C(\C)CC/C=C(\C)CC/C=C(\C)CC/C=C(\C)CC/C=C(\C)CCC=C(C)C)=C(C)C1=O [Q10, Coenzyme Q10]","ATP Citrate Lysase as % of CTRL, Normalized Intensity","ATP Citrate Lyase (ACL); HepG2, 5g glucose, amount 50",0.85 % of CTRL
same,"ATP Citrate Lysase as % of CTRL, Normalized Intensity","ATP Citrate Lyase (ACL); HepG2, 5g glucose, amount 100",0.79 % of CTRL
same,"ATP Citrate Lysase as % of CTRL, Normalized Intensity","ATP Citrate Lyase (ACL); HepG2, 22G glucose, amount 100",2.09 % of CTRL
same,"ATP Citrate Lysase as % of CTRL, Normalized Intensity","ATP Citrate Lyase (ACL); PACA2, 5g glucose, amount 50",0.68 % of CTRL
same,"ATP Citrate Lysase as % of CTRL, Normalized Intensity","ATP Citrate Lyase (ACL); PACA2, 5g glucose, amount 100",0.42 % of CTRL
same,"ATP Citrate Lysase as % of CTRL, Normalized Intensity","ATP Citrate Lyase (ACL); PACA2, 22G glucose, amount 50",1.12 % of CTRL
same,expression of ACL,ATP Citrate Lyase (ACL); cancer cells,dose-dependent decrease
same,increase in Q10 levels in mitochondria,"[1]; 100 μM Q10, 19 hours",~3 fold
same,increase in Q10 levels in mitochondria,"[1]; 100 μM Q10, 48 hour time point",~6 fold
same,form of Q10 in mitochondria,[1]; exogenous Q10 added to the media,maintained in the supplied oxidized form
same,Expression (2D spot),"SKMEL-28 cells; 3 hr, 50 uM Q10",down
same,Expression (2D spot),"SKMEL-28 cells; 3 hr, 100 uM Q10",down
same,Expression (2D spot),"SKMEL-28 cells; 6 hr, 50 uM Q10, protein EIF6",up
same,Expression (2D spot),"SKMEL-28 cells; 6 hr, 50 uM Q10, protein LMNB1",down
same,Expression (2D spot),"SKMEL-28 cells; 6 hr, 100 uM Q10, protein EIF6",down
same,Expression (2D spot),"SKMEL-28 cells; 6 hr, 100 uM Q10, protein VIM",up
same,Expression (2D spot),"SKMEL-28 cells; 12 hr, 50 uM Q10, protein LGALS1",down
same,Expression (2D spot),"SKMEL-28 cells; 12 hr, 50 uM Q10, protein PDCD6IP",up
same,Expression (2D spot),"SKMEL-28 cells; 12 hr, 100 uM Q10",up
same,Expression (2D spot),"SKMEL-28 cells; 24 hr, 50 uM Q10",down
same,OCR values,[2],consistent reduction in OCR values
same,OCR values,[3],consistent reduction in OCR values
same,PPARGCIA mRNA,[4],normalized or were slightly upregulated
same,apoptotic population,SK-MEL28,an increase only in early apoptotic population
same,apoptotic population,MCF-7,an increase only in early apoptotic population
same,early and late apoptotic population,PC-3,an increase in both early and late apoptotic population
same,increase in both early and late apoptotic cells,PaCa2,5-10 % of gated cells
